PubChem BioAssay AID1259407 (Chemical Carcinogenesis Research Information System (CCRIS), 2018)
The source made the active and inactive calls. How the calls were made is not given here.

System: CCRIS mutagenicity, Ames/micronucleus/aberration tests
Assay: CCRIS mutagenicity studies
[1] = Test System: AMES SALMONELLA TYPHIMURIUM, Strain/Indicator: TA98, Metabolic Activation: NONE, Method: PREINCUBATION
[2] = Test System: AMES SALMONELLA TYPHIMURIUM, Strain/Indicator: TA100, Metabolic Activation: NONE, Method: PREINCUBATION
[3] = Test System: AMES SALMONELLA TYPHIMURIUM, Strain/Indicator: TA1535, Metabolic Activation: NONE, Method: PREINCUBATION
[4] = Test System: AMES SALMONELLA TYPHIMURIUM, Strain/Indicator: TA1537, Metabolic Activation: NONE, Method: PREINCUBATION
[5] = Test System: AMES SALMONELLA TYPHIMURIUM, Strain/Indicator: TA98, Metabolic Activation: NONE, Method: STANDARD PLATE
[6] = Test System: AMES SALMONELLA TYPHIMURIUM, Strain/Indicator: TA100, Metabolic Activation: NONE, Method: STANDARD PLATE

## CCCNCCC
Test System: AMES SALMONELLA TYPHIMURIUM, Strain/Indicator: TA98, Metabolic Activation: HAMSTER, LIVER, S-9, AROCLOR 1254 (10%), Method: PREINCUBATION
  mutagenic call: inactive; negative
[1]
  mutagenic call: inactive; negative
Test System: AMES SALMONELLA TYPHIMURIUM, Strain/Indicator: TA98, Metabolic Activation: RAT, LIVER, S-9, AROCLOR 1254 (10%), Method: PREINCUBATION
  mutagenic call: inactive; negative
Test System: AMES SALMONELLA TYPHIMURIUM, Strain/Indicator: TA100, Metabolic Activation: HAMSTER, LIVER, S-9, AROCLOR 1254 (10%), Method: PREINCUBATION
  mutagenic call: inactive; negative
[2]
  mutagenic call: inactive; negative
Test System: AMES SALMONELLA TYPHIMURIUM, Strain/Indicator: TA100, Metabolic Activation: RAT, LIVER, S-9, AROCLOR 1254 (10%), Method: PREINCUBATION
  mutagenic call: inactive; negative
Test System: AMES SALMONELLA TYPHIMURIUM, Strain/Indicator: TA1535, Metabolic Activation: HAMSTER, LIVER, S-9, AROCLOR 1254 (10%), Method: PREINCUBATION
  mutagenic call: inactive; negative
[3]
  mutagenic call: inactive; negative
Test System: AMES SALMONELLA TYPHIMURIUM, Strain/Indicator: TA1535, Metabolic Activation: RAT, LIVER, S-9, AROCLOR 1254 (10%), Method: PREINCUBATION
  mutagenic call: inactive; negative
Test System: AMES SALMONELLA TYPHIMURIUM, Strain/Indicator: TA1537, Metabolic Activation: HAMSTER, LIVER, S-9, AROCLOR 1254 (10%), Method: PREINCUBATION
  mutagenic call: inactive; negative
[4]
  mutagenic call: inactive; negative
Test System: AMES SALMONELLA TYPHIMURIUM, Strain/Indicator: TA1537, Metabolic Activation: RAT, LIVER, S-9, AROCLOR 1254 (10%), Method: PREINCUBATION
  mutagenic call: inactive; negative

## Nc1ccc(-c2ccc(N)c(O)c2)cc1O
[5]
  mutagenic call: inactive; negative
Test System: AMES SALMONELLA TYPHIMURIUM, Strain/Indicator: TA98, Metabolic Activation: RAT, LIVER, S-9, AROCLOR, Method: STANDARD PLATE
  mutagenic call: inactive; negative
[6]
  mutagenic call: active; positive (weak)
Test System: AMES SALMONELLA TYPHIMURIUM, Strain/Indicator: TA100, Metabolic Activation: RAT, LIVER, S-9, AROCLOR, Method: STANDARD PLATE
  mutagenic call: active; positive (weak)
Test System: AMES SALMONELLA TYPHIMURIUM, Strain/Indicator: TA1535, Metabolic Activation: NONE, Method: STANDARD PLATE
  mutagenic call: inactive; negative
Test System: AMES SALMONELLA TYPHIMURIUM, Strain/Indicator: TA1535, Metabolic Activation: RAT, LIVER, S-9, AROCLOR, Method: STANDARD PLATE
  mutagenic call: inactive; negative
Test System: AMES SALMONELLA TYPHIMURIUM, Strain/Indicator: TA1537, Metabolic Activation: NONE, Method: STANDARD PLATE
  mutagenic call: inactive; negative
Test System: AMES SALMONELLA TYPHIMURIUM, Strain/Indicator: TA1537, Metabolic Activation: RAT, LIVER, S-9, AROCLOR, Method: STANDARD PLATE
  mutagenic call: inactive; negative

## O=C1O[C@H]([C@@H](O)CO)C(O)=C1O
End Point: IN VITRO CHROMOSOMAL ABERRATIONS, Test System: CHO CELLS, Metabolic Activation: RAT, LIVER, S-9, AROCLOR 1254
  mutagenic call: inactive; negative
End Point: IN VITRO MICRONUCLEUS, Test System: CHINESE HAMSTER OVARY (CHO-K5), Metabolic Activation: NONE
  mutagenic call: active; positive; no statistical analysis was performed
End Point: In vitro chromosomal aberrations, Test System: Chinese hamster lung CHL/IU cells, Metabolic Activation: None
  mutagenic call: inactive; negative. toxicicity at highest dose.
End Point: In vitro chromosomal aberrations, Test System: Chinese hamster ovary (CHO) cells, Metabolic Activation: None
  mutagenic call: inactive; negative; vitamin c, alone or in combination with glutamine, reduced effect of d
End Point: In vitro chromosomal aberrations, Test System: Human peripheral blood lymphocytes, Metabolic Activation: None
  mutagenic call: active; positive (structural changes); response at highest dose only
End Point: In vivo chromosomal aberrations, Test System: Bone marrow cells, Species: Rat, Strain/Sex: Wistar/Male and female, Route: Oral
  mutagenic call: inactive; negative; vitamin c, alone or with glutamine, reduced effect of doxorubicin
Test System: AMES SALMONELLA TYPHIMURIUM, Strain/Indicator: TA97, Metabolic Activation: HAMSTER, LIVER, S-9, AROCLOR 1254 (10 OR 30%), Method: PREINCUBATION
  mutagenic call: inactive; negative
Test System: AMES SALMONELLA TYPHIMURIUM, Strain/Indicator: TA97, Metabolic Activation: NONE, Method: PREINCUBATION
  mutagenic call: inactive; negative
Test System: AMES SALMONELLA TYPHIMURIUM, Strain/Indicator: TA97, Metabolic Activation: NONE, Method: STANDARD PLATE
  mutagenic call: inactive; negative
Test System: AMES SALMONELLA TYPHIMURIUM, Strain/Indicator: TA97, Metabolic Activation: RAT, LIVER, S-9, AROCLOR 1254 (10 OR 30%), Method: PREINCUBATION
  mutagenic call: inactive; negative
Test System: AMES SALMONELLA TYPHIMURIUM, Strain/Indicator: TA97, Metabolic Activation: RAT, LIVER, S-9, AROCLOR 1254, Method: STANDARD PLATE
  mutagenic call: inactive; negative
Test System: AMES SALMONELLA TYPHIMURIUM, Strain/Indicator: TA98, Metabolic Activation: HAMSTER, LIVER, S-9, AROCLOR 1254 (10 OR 30%), Method: PREINCUBATION
  mutagenic call: inactive; negative
[1]
  mutagenic call: inactive; negative
[5]
  mutagenic call: inactive; negative
Test System: AMES SALMONELLA TYPHIMURIUM, Strain/Indicator: TA98, Metabolic Activation: RAT, LIVER, S-9, AROCLOR 1254 (10 OR 30%), Method: PREINCUBATION
  mutagenic call: inactive; negative
Test System: AMES SALMONELLA TYPHIMURIUM, Strain/Indicator: TA98, Metabolic Activation: RAT, LIVER, S-9, AROCLOR 1254, Method: STANDARD PLATE
  mutagenic call: inactive; negative
Test System: AMES SALMONELLA TYPHIMURIUM, Strain/Indicator: TA100, Metabolic Activation: HAMSTER, LIVER, S-9, AROCLOR 1254 (10 OR 30%), Method: PREINCUBATION
  mutagenic call: inactive; negative
[2]
  mutagenic call: inactive; negative
[6]
  mutagenic call: inactive; negative
Test System: AMES SALMONELLA TYPHIMURIUM, Strain/Indicator: TA100, Metabolic Activation: RAT, LIVER, S-9, AROCLOR 1254 (10 OR 30%), Method: PREINCUBATION
  mutagenic call: inactive; negative
Test System: AMES SALMONELLA TYPHIMURIUM, Strain/Indicator: TA100, Metabolic Activation: RAT, LIVER, S-9, AROCLOR 1254, Method: STANDARD PLATE
  mutagenic call: inactive; negative
Test System: AMES SALMONELLA TYPHIMURIUM, Strain/Indicator: TA102, Metabolic Activation: NONE, Method: STANDARD PLATE
  mutagenic call: inactive; negative
Test System: AMES SALMONELLA TYPHIMURIUM, Strain/Indicator: TA104, Metabolic Activation: NONE, Method: STANDARD PLATE
  mutagenic call: inactive; negative
Test System: AMES SALMONELLA TYPHIMURIUM, Strain/Indicator: TA1535, Metabolic Activation: HAMSTER, LIVER, S-9, AROCLOR 1254 (10 OR 30%), Method: PREINCUBATION
  mutagenic call: inactive; negative
[3]
  mutagenic call: inactive; negative
Test System: AMES SALMONELLA TYPHIMURIUM, Strain/Indicator: TA1535, Metabolic Activation: RAT, LIVER, S-9, AROCLOR 1254 (10 OR 30%), Method: PREINCUBATION
  mutagenic call: inactive; negative
Test System: AMES SALMONELLA TYPHIMURIUM, Strain/Indicator: TA1537, Metabolic Activation: HAMSTER, LIVER, S-9, AROCLOR 1254 (10 OR 30%), Method: PREINCUBATION
  mutagenic call: inactive; negative
[4]
  mutagenic call: inactive; negative
Test System: AMES SALMONELLA TYPHIMURIUM, Strain/Indicator: TA1537, Metabolic Activation: RAT, LIVER, S-9, AROCLOR 1254 (10 OR 30%), Method: PREINCUBATION
  mutagenic call: inactive; negative
Test System: E. coli, Strain/Indicator: YG5190 (WP2 uvrA/pKM101 deficient in mutM gene), Metabolic Activation: None, Method: Preincubation
  mutagenic call: inactive; negative. addition of sodium nitrite (100 ug/plate) increased mutagenic response
Test System: E. coli, Strain/Indicator: YG5190 (WP2 uvrA/pKM101 deficient in mutM gene), Metabolic Activation: S9, Method: Preincubation
  mutagenic call: inactive; negative. addition of sodium nitrite (100 ug/plate) increased mutagenic response
Test System: HCT116 COLON CANCER CELLS, Strain/Indicator: HCT116 CELLS (HPRT)/6-THIOGUANINE, Metabolic Activation: NONE, Method: STANDARD PLATE
  mutagenic call: inactive; negative
